Values of other authors in US7585869B2, “Substituted heterocylces for the treatment of abnormal cell growth” (Pfizer, Inc., priority 2003, dated 2009).

Experiments:
[1] = system: transplanted human mammary carcinoma which expresses epidermal growth factor receptor tyrosine kinase (EGFR); settings: athymic nude mice
[2] = system: carcinoma which does not express the EGF receptor

## O=CN/C=C/c1cc(O)ccc1O [erbstatin]
[1]
  effect on growth of transplanted human mammary carcinoma: selectively attenuates the growth
[2]
  effect on growth of another carcinoma: without effect on the growth
